Measurements: ChEMBL document CHEMBL1158262, “Novel beta-methoxyacrylates of the 9-methoxystrobilurin and oudesmansin classes produced by the basidiomycete Favolaschia pustulosa” (J Nat Prod, 1996)
Converted amounts (≈) assume the structure as drawn. The source made the active and inactive calls. The rule behind the calls is not given here.

Tests used:
[1] = tested on: JIYOYE; assay: Cytotoxicity against human Jijoye cells after 5 days by XTT assay; format: functional, cell-based; details: 120 h
[2] = tested on: JIYOYE; assay: Cytotoxicity against human Jijoye cells after 2 days by XTT assay; format: functional, cell-based
[3] = tested on: Candida albicans; assay: Antifungal activity against Candida albicans after 18 hrs by serial dilution method; format: functional
[4] = tested on: Bacillus subtilis; assay: Antibacterial activity against Bacillus subtilis after 18 hrs by serial dilution method; format: functional

With `C=CC(C)(C)OC(C)(C)C1COc2ccc(/C=C/C(OC)=C(C)\C(=C/OC)C(=O)OC)cc2O1` (stereo not given) the IC50 [1] was 1.8 nM, the CC50 ([1]; read-out: LC50 (the source's name)) was 1.8 nM and the Activity [2] was “inactive”. It also gave an MIC [3] of 6 µM (≈ 2.84 µg/mL) and an MIC [4] of 0.9 µM (≈ 0.425 µg/mL).
